Measurements reported in patent US4123530A, “N-cyclohexyl-piperazino acetamides and propionamides” (Camillo Corvi S.p.A., priority 1976, dated 1978).

Legend:
Guinea-pig Ileus = assay: spasmolytic activity in vitro, Guinea-pig Ileus
[1] = tested on: Ulcer due to activity prevention; assay: Anti-ulcer activity: Ulcer due to activity prevention (Rossi & Coll.); format: in vivo
[2] = tested on: Phenylbutazone-histamine ulcer; assay: Anti-ulcer activity: Phenylbutazone-histamine ulcer; format: in vivo
Withdrawal ulcer = assay: Anti-ulcer activity: Withdrawal ulcer; format: in vivo; conditions: 100 mg/kg os
Reserpine ulcer = assay: Anti-ulcer activity: Reserpine ulcer with rats; format: in vivo
acute toxicity, rats = conditions: rat, in vivo, po, os, read-out: DL/50 (the source's name)
acute toxicity, mice = conditions: mouse, in vivo, read-out: DL/50 (the source's name)
Shay ulcer = assay: Anti-ulcer activity: Shay ulcer; format: in vivo; conditions: 300 mg/kg os
Wistar rats = assay: Sub-chronic toxicity (30 days per ora); format: in vivo; conditions: oral 400 mg/kg
Protocol: (2) Sub-chronic toxicity (C/63)
Eighty Wistar rats were divided in 4 groups of twenty each (10 males and 10 fewales). Compound (C/63) was given per ora to three groups of animals for a period of 30 days in quantities of 100, 200 and 400 mg/kg.

intestine peristaltis = assay: spasmolytic activity in vivo: activity on intestine peristaltis (mouse)
Description: Activity of C/63 on intestine peristaltis (mouse)

| SMILES | DE50 against Ach. (Guinea-pig Ileus; against Ach.) [µg/mL] | DE50 against BaCl2 (Guinea-pig Ileus; against BaCl2) [µg/mL] | DE50 against histamine (Guinea-pig Ileus; against histamine) [µg/mL] | Inhibition % ([1]; 50 mg/kg os) [%] | Inhibition % ([1]; 100 mg/kg os) [%] | Inhibition % ([1]; 200 mg/kg os) [%] | Inhibition % ([2]; 25 mg/kg os) [%] | Inhibition % ([2]; 50 mg/kg os) [%] | Inhibition % ([2]; 100 mg/kg os) [%] | Inhibition % (Withdrawal ulcer) [%] | Inhibition % (Reserpine ulcer; 300 mg/kg os) [%] | LD50 (acute toxicity, rats) [mg/kg] | LD50 (acute toxicity, mice; iv) [mg/kg] | LD50 (acute toxicity, mice; po, os) [mg/kg] | Inhibition % (Shay ulcer) [%] | appearance of damages due to toxicity (bloodcrasis, biochemical blood analysis, weight, histological examination of the organs) (Wistar rats) | Inhibition % (intestine peristaltis; 100 mg/kg os) [%] | Inhibition % (intestine peristaltis; 200 mg/kg os) [%] | anticholinergic activity (anticholinergic activity) | Inhibition % (Reserpine ulcer; 100 mg/kg os) [%] |
| --- | --- | --- | --- | --- | --- | --- | --- | --- | --- | --- | --- | --- | --- | --- | --- | --- | --- | --- | --- | --- |
| O=C(CN1CCNCC1)NC1CCCCC1 [C/63, N-[1-piperazinylacetyl]-cyclohexylamine] | > 40 | > 40 | > 40 | 19 | 32 | 45 | 10 | 43 | 72 | 33 | 25 | 3900 | 271 | 1970 | 72 | no appearance of damages due to the toxicity of the drug | 6 | 23 |  |  |
| CC1CCC(NC(=O)CN2CCNCC2)CC1 (stereo not drawn) [C/82, N-(1-piperazinylacetyl)-4-methyl-cyclohexylamine] |  |  |  |  | 30 | 35 |  | 33 | 60 | 30 | 70 |  |  | 1790 |  |  |  |  | no anticholinergic activity | 47 |
